Laboratory results as given in patent publication US20180071317A1, “USE OF AGENTS THAT ALTER THE PERITUMORAL ENVIRONMENT FOR THE TREATMENT OF CANCER” (SERVICIO ANDALUZ DE SALUD, priority 2011, published 2018).

How the values were obtained:
[1] = system: fibroblasts of tumors produced by human rhabdomyosarcoma tumor line (A-204); assay: Marker expression (IHC) in fibroblasts of tumor or peritumoral area, mouse model, A-204; type: in vivo; conditions: A-204 tumors in mice, 30 mg/kg/day oral, 7 days
Method: In vitro tests conducted in Example 5 are now carried out in an experimental model in mice in vivo. […] Subsequently, the expression in fibroblasts tumoral and peritumoral area of molecular markers associated with progression and maintenance of tumors: TGF-α, TGF-β1, TGF-β2, TGF-β3, MMP-7, MMP-11, MMP-14 were analyzed by immunohistochemistry.
Were injected with 2×10^7 cells tumors (corresponding, in each case to each of the tumor types as specified in Table 9) in 200 of PBS subcutaneously μl. […] Mice were randomized into two groups when the tumors reached a volume of 75 mm^3 One group was treated with non-peptide receptor antagonists NK1 and the other with placebo 200μ1. […] Tumors and samples of non-neoplastic stromal areas remote from the tumor were halved, formalin fixed (4%) and then were included in paraffin blocks for analysis by immunohistochemistry.
The expression on fibroblast cells obtained in the animal model was analyzed by immunohistochemistry, of the above markers: TGF-α, TGF-β1, TGF-β2, TGF-β3, MMP-7, MMP-1 1, MMP-14MP-14. Tables 32 to 35 depict the type of label used and the average percentage of fibroblasts present in non-tumor areas, tumor and peritumoral (±SD) which were expressing the marker shown in each of the tumor types developed from of the different cell lines used. This process was realized in mice treated with non-peptide antagonists of NK1 receptor and in untreated animals (control).

[2] = system: fibroblasts of tumors produced by lung carcinoma non small cell human (HCC-44) cells; assay: Marker expression (IHC) in fibroblasts of tumor or peritumoral area, mouse model, HCC-44; type: in vivo; conditions: HCC-44 tumors in mice, 30 mg/kg/day oral, 7 days
Method: The expression on fibroblast cells obtained in the animal model was analyzed by immunohistochemistry, of the above markers: TGF-α, TGF-β1, TGF-β2, TGF-β3, MMP-7, MMP-1 1, MMP-14MP-14. […] This process was realized in mice treated with non-peptide antagonists of NK1 receptor and in untreated animals (control).

[3] = system: fibroblasts (PHF) co-cultured with tumor cells of human Burkitt lymphoma (CA-46); assay: Marker expression (IHC) in PHF co-cultured with CA-46 tumor cells; type: cell-based; conditions: PHF co-cultured with CA-46 + SP + NK1 antagonist;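 further: percentage of PHF fibroblasts positive for each marker, cultures grown in fresh human plasma from a healthy donor, six replicates, compared with fibroblasts cultured alone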
Method: All cultures were maintained 48 hours, following which the same cells were included in paraffin blocks for subsequent analysis of the expression of different markers by immunohistochemistry (see Example 1). The primary antibodies used to perform immunohistochemical assays and their concentration are detailed in Example 2. All experiments were carried out sixfold. Analyzed markers in fibroblast cells (stromal cells) were: TGF-α, TGF-β1, TGF-β2, TGF-β3, SPARC, MMP-3, MMP-7, MMP-9, MMP-11, MMP-13 and MMP-14.

[4] = system: fibroblasts (PHF) co-cultured with human melanoma tumor cells (MEL-HO1); assay: Marker expression (IHC) in PHF co-cultured with MEL-HO1 tumor cells; type: cell-based; conditions: PHF co-cultured with MEL-HO1 + SP + NK1 antagonist;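 further: values are the percentage of fibroblasts positive for each marker, with cultures grown in fresh healthy-donor blood plasma and each experiment run six times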
Method: (§1) All cultures were maintained 48 hours, following which the same cells were included in paraffin blocks for subsequent analysis of the expression of different markers by immunohistochemistry (see Example 1). […] All experiments were carried out sixfold. Analyzed markers in fibroblast cells (stromal cells) were: TGF-α, TGF-β1, TGF-β2, TGF-β3, SPARC, MMP-3, MMP-7, MMP-9, MMP-11, MMP-13 and MMP-14.

[5] = system: mononuclear cells; assay: Marker expression (immunohistochemistry) in mononuclear blood cells with SP alone or with NK1 antagonists; type: cell-based, human; conditions: SP 1 μM + antagonist 1 μM; 48 h
Source text: Briefly, heparinized blood from healthy donors was centrifuged so as to separate the various components thereof. Red blood cells remained at the bottom of the tube. Above them was a small white layer composed of the white blood cells and above, on top of the tube, the blood plasma. The layer of white cells was distributed in a culture plate of 24 wells by adding in each the same concentration of blood plasma from the same donor, supplemented with 1% antibiotic-antimycotic (Invitrogen). In each well, approximately 1000 cells (PHF) skin from the dermis were further added, obtained as previously described in Example 2. […] After 48 hours of incubation, cells were collected and embedded in paraffin for expression analysis by immunohistochemical techniques (as described in Example 1).
The expression of TGF molecular markers (anti-TGF 2, SAB4502956) and NF-kB (anti-NF-kB, SAB4501992) using specific antibodies against them were analyzed. All antibodies used were rabbit polyclonal antibodies obtained from Sigma Aldrich and were used at a concentration of 1/1000. All experiments were carried out sixfold.

[6] = system: macrophages in co-culture with cells isolated from primary human tumors; assay: Marker expression (IHC) in macrophages co-cultured with primary human tumor cells (colon, breast, ovarian, lung carcinoma, melanoma); type: cell-based; conditions: SP 1 μM + antagonist 1 μM;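 further: macrophages came from pleural or peritoneal washings of the patient who also supplied the tumor cells, and both were co-cultured on fresh blood plasma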
[7] = system: fibroblasts (PHF) co-cultured with tumor cells of human endometrial carcinoma (AN3-CA); assay: Marker expression (IHC) in PHF co-cultured with AN3-CA tumor cells; type: cell-based; conditions: co-culture with AN3-CA; SP 1 μM + antagonist 1 μM; 48 h;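 further: cultured in fresh healthy-donor blood plasma with added antibiotic-antimycotic, run in six replicates, values give percent of fibroblasts positive for each marker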
Method: as §1

[8] = system: fibroblasts (PHF) co-cultured with tumor cells of human cervix carcinoma (KB); assay: Marker expression (IHC) in PHF co-cultured with KB tumor cells; type: cell-based; conditions: co-culture with KB; SP 1 μM + antagonist 1 μM; 48 h;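 further: percentage of PHF fibroblasts showing expression of each marker, cultured in fresh blood plasma from a healthy human donor, six replicates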
Method: as §1

[9] = system: fibroblasts (PHF) co-cultured with human fibrosarcoma tumor cells (HT-1080); assay: Marker expression (IHC) in PHF co-cultured with HT-1080 tumor cells; type: cell-based; conditions: co-culture with HT-1080; SP 1 μM + antagonist 1 μM; 48 h;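 further: cultures grown in fresh human plasma from a healthy donor, six replicates, value is percent of fibroblasts positive for the marker, compared with fibroblasts cultured without tumor cells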
Method: as §1

[10] = system: fibroblasts (PHF) co-cultured with tumor cells, thyroid carcinoma (reference A-427); assay: Marker expression (IHC) in PHF co-cultured with thyroid carcinoma tumor cells; type: cell-based, human; conditions: co-culture with thyroid carcinoma cells; SP 1 μM + antagonist 1 μM; 48 h;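 further: grown in fresh plasma from a healthy human donor, read-out is percent of fibroblasts positive for each marker, compared with fibroblasts cultured alone, run in six replicates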
Method: as §1

[11] = system: fibroblasts (PHF) co-cultured with tumor cells, thyroid carcinoma; assay: as above; type: cell-based, human; conditions: co-culture with thyroid carcinoma cells; SP 1 μM + antagonist 1 μM; 48 h
Method: as §1

[12] = co-culture with cells isolated from breast carcinoma
[13] = co-culture with cells isolated from colon carcinoma
[14] = co-culture with cells isolated from lung carcinoma
[15] = co-culture with cells isolated from melanoma
[16] = co-culture with cells isolated from ovarian carcinoma

Cc1cc(F)ccc1[C@H]1CNCCN1C(=O)N(C)[C@H](C)c1cc(C(F)(F)F)cc(C(F)(F)F)c1 [Vestipitant]
0%: fibroblasts expressing MMP-7 [1] | fibroblasts expressing MMP-11 [1] | fibroblasts expressing MMP-14 [1] | fibroblasts expressing TGF-α [1] | fibroblasts expressing TGF-β 1 [1] | fibroblasts expressing TGF-β 2 [1] | fibroblasts expressing TGF-β 3 [1] | fibroblasts expressing MMP-7 [2] | fibroblasts expressing MMP-11 [2] | fibroblasts expressing MMP-14 [2] | fibroblasts expressing TGF-α [2] | fibroblasts expressing TGF-β 1 [2] | fibroblasts expressing TGF-β 2 [2] | fibroblasts expressing TGF-β 3 [2] | cells expressing MMP-3 [3] | cells expressing MMP-7 [3] | cells expressing MMP-9 [3] | cells expressing MMP-11 [3] | cells expressing MMP-13 [3] | cells expressing MMP-14 [3] | cells expressing SPARC [3] | cells expressing TGF-α [3] | cells expressing TGF-β1 [3] | cells expressing TGF-β2 [3] | cells expressing TGF-β3 [3] | cells expressing MMP-3 [4] | cells expressing MMP-7 [4] | cells expressing MMP-9 [4] | cells expressing MMP-11 [4] | cells expressing MMP-13 [4] | cells expressing MMP-14 [4] | cells expressing SPARC [4] | cells expressing TGF-α [4] | cells expressing TGF-β1 [4] | cells expressing TGF-β2 [4] | cells expressing TGF-β3 [4] | mononuclear cells expressing NF-kB [5] | mononuclear cells expressing TGF-β [5] | Percentage of macrophages which expressed EGF [6, 12] | Percentage of macrophages which expressed MMP-9 [6, 12] | Percentage of macrophages which expressed VEGF [6, 12] | Percentage of macrophages which expressed EGF [6, 13] | Percentage of macrophages which expressed MMP-9 [6, 13] | Percentage of macrophages which expressed VEGF [6, 13] | Percentage of macrophages which expressed EGF [6, 14] | Percentage of macrophages which expressed MMP-9 [6, 14] | Percentage of macrophages which expressed VEGF [6, 14] | Percentage of macrophages which expressed EGF [6, 15] | Percentage of macrophages which expressed MMP-9 [6, 15] | Percentage of macrophages which expressed VEGF [6, 15] | Percentage of macrophages which expressed EGF [6, 16] | Percentage of macrophages which expressed MMP-9 [6, 16] | Percentage of macrophages which expressed VEGF [6, 16] | PHF cells expressing MMP-3 [7] | PHF cells expressing MMP-7 [7] | PHF cells expressing MMP-9 [7] | PHF cells expressing MMP-11 [7] | PHF cells expressing MMP-13 [7] | PHF cells expressing MMP-14 [7] | PHF cells expressing SPARC [7] | PHF cells expressing TGF-α [7] | PHF cells expressing TGF-β1 [7] | PHF cells expressing TGF-β2 [7] | PHF cells expressing TGF-β3 [7] | PHF cells expressing MMP-3 [8] | PHF cells expressing MMP-7 [8] | PHF cells expressing MMP-9 [8] | PHF cells expressing MMP-11 [8] | PHF cells expressing MMP-13 [8] | PHF cells expressing MMP-14 [8] | PHF cells expressing SPARC [8] | PHF cells expressing TGF-α [8] | PHF cells expressing TGF-β1 [8] | PHF cells expressing TGF-β2 [8] | PHF cells expressing TGF-β3 [8] | PHF cells expressing MMP-3 [9] | PHF cells expressing MMP-7 [9] | PHF cells expressing MMP-9 [9] | PHF cells expressing MMP-11 [9] | PHF cells expressing MMP-13 [9] | PHF cells expressing MMP-14 [9] | PHF cells expressing SPARC [9] | PHF cells expressing TGF-α [9] | PHF cells expressing TGF-β1 [9] | PHF cells expressing TGF-β2 [9] | PHF cells expressing TGF-β3 [9] | PHF cells expressing MMP-3 [10] | PHF cells expressing MMP-7 [10] | PHF cells expressing MMP-9 [10] | PHF cells expressing MMP-13 [10] | PHF cells expressing MMP-14 [10] | PHF cells expressing SPARC [10] | PHF cells expressing TGF-α [10] | PHF cells expressing TGF-β1 [10] | PHF cells expressing TGF-β2 [10] | PHF cells expressing TGF-β3 [10] | PHF cells expressing MMP-11 [11]
